Data reported in US11072611B2, “Compounds and pharmaceutical compositions thereof for the treatment of inflammatory disorders” (Galapagos NV, priority 2013, dated 2021).

system: LPA 18:2; assay: Rat whole blood (plasma) LPA assay; format: biochemical; conditions: 2 h at 37° C., LPA 18:2 by LC-MS/MS
Experimental: (§1) Whole blood is collected from rats or mouse by exsanguinations on sodium heparin tube, then after centrifugation at 3000 rpm for 15 min at 4° C., plasma is stored at −80° C. Compounds are diluted in DMSO in concentration dependent manner then 0.5 μL are dispensed into 96-well plate placed in ice. Plasma is defrosted on ice then 49.5 μL of plasma are added into the well containing 0.5 μL of compound (1% DMSO final). Plates are covered with a lid in polypropylene and incubated at +37° C., 5% CO2, for 2 h under gentle shaking (except controls which are stored at −20° C.).
(§2) At the end of the incubation, controls are defrosted in ice and transferred in the incubated plates for LC-MS/MS analysis with a non GLP-validated method. For the analysis, plasma proteins from a 10 μL incubated plates are precipitated with an excess of methanol containing the internal standard, LPA 17:0. After centrifugation, the corresponding supernatant is injected on a C18 column. Analytes are eluted out of the column under isocratic conditions. An API5500 QTRAP mass spectrometer (ABSciex™) is used for the detection of LPA 18:2. No calibration curve is prepared for LPA 18:2, however relative quantities are evaluated based on the peak area.

IC50 [nM]	Compound
0.01 to 100	CCc1nc2c(F)cc(N3CCN(CC(=O)N4CC(O)C4)CC3)cn2c1N(C)c1nc(-c2ccc(F)cc2)c(C#N)s1 [Compound 12, 2-((2-ethyl-8-fluoro-6-(4-(2-(3-hydroxyazetidin-1-yl)-2-oxoethyl)piperazin-1-yl)imidazo[1,2-a]pyridin-3-yl)(methyl)amino)-4-(4-fluorophenyl)thiazole-5-carbonitrile]
> 1000	CCc1nc2ccc(C3CCN(CC(=O)N4CC(O)C4)CC3)cn2c1N(C)c1nc(-c2ccc(F)cc2)cs1 [Compound 110, 2-(4-(2-ethyl-3-((4-(4-fluorophenyl)thiazol-2-yl)(methyl)amino)imidazo[1,2-a]pyridin-6-yl)piperidin-1-yl)-1-(3-hydroxyazetidin-1-yl)ethanone]
> 1000	CCc1nc2ccc(C3CCN(CC(=O)N4CC(O)C4)CC3)cn2c1N(C)c1nc(-c2ccc(F)cc2)c(CO)s1 [Compound 156, 2-(4-(2-ethyl-3-((4-(4-fluorophenyl)-5-(hydroxymethyl)thiazol-2-yl)(methyl)amino)imidazo[1,2-a]pyridin-6-yl)piperidin-1-yl)-1-(3-hydroxyazetidin-1-yl)ethanone]
0.01 to 100	CCc1nc2ccc(C3CCN(S(C)(=O)=O)CC3)cn2c1N(C)c1nc(-c2ccc(F)cc2)c(C(=O)C(F)(F)F)s1 [Compound 160, 1-(2-((2-ethyl-6-(1-(methylsulfonyl)piperidin-4-yl)imidazo[1,2-a]pyridin-3-yl)(methyl)amino)-4-(4-fluorophenyl)thiazol-5-yl)-2,2,2-trifluoroethanone]
0.01 to 100	CN(C)C(=O)CN1CCC(c2ccc3nc(CCC#N)c(N(C)c4nc(-c5ccc(F)cc5)cs4)n3c2)CC1 [Compound 174, 2-(4-(2-(2-cyanoethyl)-3-((4-(4-fluorophenyl)thiazol-2-yl)(methyl)amino)imidazo[1,2-a]pyridin-6-yl)piperidin-1-yl)-N,N-dimethylacetamide]
0.01 to 100	CN(c1nc(-c2ccc(F)cc2)c(CO)s1)c1c(CCC#N)nc2ccc(C3CCN(S(C)(=O)=O)CC3)cn12 [Compound 175, 3-(3-((4-(4-fluorophenyl)-5-(hydroxymethyl)thiazol-2-yl)(methyl)amino)-6-(1-(methylsulfonyl)piperidin-4-yl)imidazo[1,2-a]pyridin-2-yl)propanenitrile]
> 1000	CCc1nc2ccc(N3CCN(CCO)CC3)cn2c1N(C)c1nc(-c2ccc(F)cc2)cs1 [Compound 180, 2-(4-(2-ethyl-3-((4-(4-fluorophenyl)thiazol-2-yl)(methyl)amino)imidazo[1,2-a]pyridin-6-yl)piperazin-1-yl)ethanol]
> 1000	CCc1nc2ccc(N3CCS(=O)(=O)CC3)cn2c1N(C)c1nc(-c2ccc(F)cc2)cs1 [Compound 182, 4-(2-ethyl-3-((4-(4-fluorophenyl)thiazol-2-yl)(methyl)amino)imidazo[1,2-a]pyridin-6-yl)-thiomorpholine 1,1-dioxide]
> 1000	CCc1nc2ccc(N3CCN(S(C)(=O)=O)CC3)cn2c1N(C)c1nc(-c2ccc(Cl)cc2)ns1 [Compound 188, 3-(4-chlorophenyl)-N-(2-ethyl-6-(4-(methylsulfonyl)piperazin-1-yl)imidazo[1,2-a]pyridin-3-yl)-N-methyl-1,2,4-thiadiazol-5-amine]
> 1000	CCc1nc2ccc(N3CCN(Cc4cnc[nH]4)CC3)cn2c1N(C)c1nc(-c2ccc(F)cc2)cs1 [Compound 192, N-(6-(4-((1H-imidazol-5-yl)methyl)piperazin-1-yl)-2-ethylimidazo[1,2-a]pyridin-3-yl)-4-(4-fluorophenyl)-N-methylthiazol-2-amine]
> 1000	CCc1nc2ccc(N3CCN(C(=O)[C@H](C)O)CC3)cn2c1N(C)c1nc(-c2ccc(F)cc2)cs1 [Compound 203, (S)-1-(4-(2-ethyl-3-((4-(4-fluorophenyl)thiazol-2-yl)(methyl)amino)imidazo[1,2-a]pyridin-6-yl)piperazin-1-yl)-2-hydroxypropan-1-one]
> 1000	CCc1nc2ccc(N3CCOC3=O)cn2c1N(C)c1nc(-c2ccc(Cl)cc2)cs1 [Compound 206, 3-(3-((4-(4-chlorophenyl)thiazol-2-yl)(methyl)amino)-2-ethylimidazo[1,2-a]pyridin-6-yl)oxazolidin-2-one]
> 1000	CCc1nc2ccc(N3CCN(CCO)CC3)cn2c1N(C)c1nc(-c2ccc(Cl)cc2)cs1 [Compound 212, 2-(4-(3-((4-(4-chlorophenyl)thiazol-2-yl)(methyl)amino)-2-ethylimidazo[1,2-a]pyridin-6-yl)piperazin-1-yl)ethanol]
> 1000	CCc1nc2ccc(N3CCS(=O)(=O)CC3)cn2c1N(C)c1nc(-c2ccc(Cl)cc2)cs1 [Compound 213, 4-(2-ethyl-3-((4-(4-chlorophenyl)thiazol-2-yl)(methyl)amino)imidazo[1,2-a]pyridin-6-yl)-thiomorpholine-1,1-dioxide]
> 1000	CCc1nc2ccc(N3CCN(Cc4ncc[nH]4)CC3)cn2c1N(C)c1nc(-c2ccc(F)cc2)cs1 [Compound 226, N-(6-(4-((1H-imidazol-2-yl)methyl)piperazin-1-yl)-2-ethylimidazo[1,2-a]pyridin-3-yl)-4-(4-fluorophenyl)-N-methylthiazol-2-amine]

system: tobacco smoke induced recruitment of inflammatory cells to the lungs; assay: Tobacco smoke (TS) model, lungs inflammatory cells recruitment; format: in vivo, female C57BL/6J mice; conditions: 3 mg/kg twice daily p.o., TS-exposed mice
Experimental: The aim of this experiment is to evaluate the efficacy and potency of a test compound administered p.o., once or twice daily on days 6 to 11, vs reference compounds, on pulmonary inflammation induced by 11 days of TS-exposure in female C57BL/6J mice, by assessing the effect of a test compound on the tobacco smoke induced recruitment of inflammatory cells to the lungs.
The test compounds are formulated in PEG200/0.5% methylcellulose (25/75, v/v) and are given at a dose volume of 10 mL/kg. Roflumilast and Dexamethasone are included as positive […] control, respectively. Each treatment group consists of 10 mice.
A first group of mice is subjected to daily TS-exposure for 5 consecutive days and sacrificed on the day 6, 24 h after the final TS-exposure.
A second group is exposed to air for 5 consecutive days (sham exposure) and sacrificed on the day 6, 24 h after the final air-exposure.
Compound and reference-treated groups are subjected to daily TS-exposure for 11 consecutive days and sacrificed on the day 12, 24 h after the final TS-exposure. Mice are dosed p.o. on days 6 to 11, twice daily, 1 h prior to and 6 h after each TS-exposure, with either vehicle, or the test compound at 3, 5, 10 or 30 mg/kg. Another group is dosed p.o. on days 6 to 11, once daily, 1 h prior to each TS-exposure, with either vehicle, or the test compound at 10 mg/kg.
An additional group is dosed p.o., once daily, on days 6 to 11, with roflumilast at 5 mg/kg, 1 h prior to each TS-exposure. Dexamethasone is dosed p.o., twice daily, on days 6 to 11, at 0.3 mg/kg, 1 h prior to and 6 h after each TS-exposure.
For each mouse, a BAL is performed using 0.4 mL of PBS. The lavage fluid is centrifuged, the supernatant removed and the resulting cell pellet re-suspended for total cell counts and cytospin slide preparation. […]
The lungs are dissected out and the left lobes are removed, snap-frozen and stored at −80° C. […] Cell data are presented as individual data points for each animal and the mean value calculated for each group. […]
Percentage inhibitions for the cell data are calculated using the formula below: […]

Compound	number of cells recovered in the BALF (macrophage cells, epithelial cells, neutrophils)
CCc1nc2c(C)cc(N3CCN(CC(=O)N4CC(O)C4)CC3)cn2c1N(C)c1nc(-c2ccc(F)cc2)c(C#N)s1 [Compound 2, 2-((2-ethyl-6-(4-(2-(3-hydroxyazetidin-1-yl)-2-oxoethyl)piperazin-1-yl)-8-methylimidazo[1,2-a]pyridin-3-yl)(methyl)amino)-4-(4-fluorophenyl)thiazole-5-carbonitrile]	significantly inhibited

same assay, conditions: 10 mg/kg twice daily p.o., TS-exposed mice

Compound	number of cells recovered in the BALF (macrophage cells, epithelial cells, neutrophils)
CCc1nc2c(C)cc(N3CCN(CC(=O)N4CC(O)C4)CC3)cn2c1N(C)c1nc(-c2ccc(F)cc2)c(C#N)s1 [Compound 2, 2-((2-ethyl-6-(4-(2-(3-hydroxyazetidin-1-yl)-2-oxoethyl)piperazin-1-yl)-8-methylimidazo[1,2-a]pyridin-3-yl)(methyl)amino)-4-(4-fluorophenyl)thiazole-5-carbonitrile]	significantly inhibited
CCc1nc2c(F)cc(N3CCN(CC(=O)N4CC(O)C4)CC3)cn2c1N(C)c1nc(-c2ccc(F)cc2)c(C#N)s1 [Compound 12, 2-((2-ethyl-8-fluoro-6-(4-(2-(3-hydroxyazetidin-1-yl)-2-oxoethyl)piperazin-1-yl)imidazo[1,2-a]pyridin-3-yl)(methyl)amino)-4-(4-fluorophenyl)thiazole-5-carbonitrile]	significantly inhibited

system: LPA 18:2; assay: Human whole blood (plasma) LPA assay; format: biochemical; conditions: 2 h at 37° C., LPA 18:2 by LC-MS/MS
Experimental: as §1, with “Blood is” for “Whole blood is”, “from healthy volunteers who gave informed consent into” for “from rats or mouse by exsanguinations on”, “heparin tubes by venipuncture,” for “heparin tube,”, “then gently inverted several times to prevent clotting. Tubes are centrifuged” for “then after centrifugation”, “4° C. then” for “4° C.,”
as §2

IC50 [nM]	Compound
> 1000	CCc1nc2ccc(C3CCN(S(C)(=O)=O)CC3)cn2c1N(C)c1nc(-c2ccc(F)cc2)cs1 [Compound 80, N-(2-ethyl-6-(1-(methylsulfonyl)piperidin-4-yl)imidazo[1,2-a]pyridin-3-yl)-4-(4-fluorophenyl)-N-methylthiazol-2-amine]
> 1000	CCc1nc2ccc(C3CCN(CC(=O)N4CC(O)C4)CC3)cn2c1N(C)c1nc(-c2ccc(F)cc2)cs1 [Compound 110, 2-(4-(2-ethyl-3-((4-(4-fluorophenyl)thiazol-2-yl)(methyl)amino)imidazo[1,2-a]pyridin-6-yl)piperidin-1-yl)-1-(3-hydroxyazetidin-1-yl)ethanone]
